US10696693B2, “Fused imidazole derivatives as TGF-beta inhibitors” (Rigel Pharmaceuticals, Inc., priority 2014, dated 2020)
Like-named read-outs stand apart in the source and are kept apart here.

How the values were obtained:
GDF8 = test: AlphaScreen SureFire p-SMAD3 (Ser423/425) assay, GDF8-stimulated cells; assay type: cell-based
Source text: (§1) The p-SMAD-3 (Ser423/425) SureFire® assay has been designed to measure the phosphorylation of endogenous cellular p-SMAD-3 (Ser423/425) in cell lysates and is a system for the screening of both modulators of receptor activation (e.g. agonists and antagonists) as well as agents acting intracellularly, such as small molecule inhibitors of upstream events. The assay will measure p-SMAD-3 (Ser423/425) activation by either cloned or endogenous receptors, and can be applied to primary cells.
(§2) 96-well Assay Protocol for 293FT and RMS13 adherent cells can be carried out manually or in high throughput with liquid handling robots.
(§3) The cells (80 μL of cells for 96 well plates) were plated in collagen coated tissue culture plates in RPMI or FreeStyle medium (Invitrogen) and incubated overnight. For manual analysis, 6 plates for GDF8, 6 plates for TGFβ, and optionally 6 plates for Alk5ca(ALK5 constitutively active) were used.
(§4) The compound dilution plates were prepared as follows: 12 μL of DMSO was transferred into first column of 96-well plate, and 16 μL of DMSO was transferred into columns 2-12 of the 96-well plate. 12 μL of compound solution was transferred into first column of the DMSO-containing 96-well plate. Three-fold dilution was performed up to column 10 of the DMSO-containing 96-well plate.
(§5) The plate containing cells were treated with compounds for about 10 minutes, and then ligand was added. GDF8 or TGFb was added to plates to stimulate. 293FL cells were stimulatedfor 90 minutes at 37° C.; and RMS13 cells were stimulated for 60 minutes at 37° C. The medium was then removed from the cells, and 1× Lysis Buffer (about 25 μL) was added and the plate was gently agitated on plate shaker for 5-10 minutes.
(§6) The lysate (5 μL) was then placed into 384-well shallow plates avoiding the generation of bubbles. To this, the Reaction Buffer+Activation Buffer+AlphaScreen® Acceptor beadsmixture (5 μL) was added. The plate was sealed with adhesive cover and shielded from light (e.g., with metal foil), and agitated gently on plate shaker for 2 hours at room temperature.
(§7) Dilution buffer+AlphaScreen® Donor beads (2 μL) was then added, and the plate was intubated on the plate shaker for an additional 1½ hours. After completion, the plate was read on Synergy-4 or Enspire plate reader, using AlphaScreen® pSMAD3® settings.
(§8) Representative results for inhibition of GDF8 (data=GDF pSMAD (MPC11) (μM)) and TGF-β (data=TGF-β pSMAD (MPC-11) (μM)) signaling are shown in Table 1(A=<0.05 μM, B=0.05−<0.1 μM, C=0.1−<1.0 μM, D=>1.0 μM): […]

TGF-β = test: AlphaScreen SureFire p-SMAD3 (Ser423/425) assay, TGF-β-stimulated cells; assay type: cell-based
Source text: as §1, §2, §3, §4, §5, §6, §7, §8

[1] = Mus musculus, MPC-11, read-out: GDF8: inhibition of GDF8 signaling, GDF pSMAD (MPC11), p-SMAD3 (Ser423/425) AlphaScreen in cell lysate, GDF8 stimulation
[2] = Mus musculus, MPC-11, read-out: TGF-β: inhibition of TGF-β signaling, TGF-β pSMAD (MPC-11), p-SMAD3 (Ser423/425) AlphaScreen in cell lysate, TGF-β stimulation
[3] = Mus musculus, MPC-11, p-SMAD3 (Ser423/425) AlphaScreen in cell lysate, MPC11, GDF8 stimulation, read-out: GDF8: inhibition of GDF8 signaling, GDF pSMAD (MPC11)
[4] = Mus musculus, p-SMAD3 (Ser423/425) AlphaScreen in cell lysate, MPC-11, TGF-β stimulation, read-out: TGF-β: inhibition of TGF-β signaling, TGF-β pSMAD (MPC-11)
[5] = read-out: GDF8: inhibition of GDF8 signaling, GDF pSMAD (MPC11), p-SMAD3 (Ser423/425) AlphaScreen in cell lysate, GDF8 stimulation
[6] = read-out: TGF-β: inhibition of TGF-β signaling, TGF-β pSMAD (MPC-11), p-SMAD3 (Ser423/425) AlphaScreen in cell lysate, TGF-β stimulation

IC50 (GDF8; [3]) [nM]	IC50 (TGF-β; [4]) [nM]	SMILES	further results
–	–	Fc1cccc(-c2nc3n(c2-c2ccc4[nH]ncc4c2)CCC3)c1 [Compound 193, 5-(2-(3-fluorophenyl)-6,7-dihydro-5H-pyrrolo[1,2-a]imidazol-3-yl)-1H-indazole]	IC50 (GDF8; [1]): 100 to 1000 nM; IC50 (TGF-β; [2]): > 1000 nM
100 to 1000	> 1000	Cc1c(-c2nc3n(c2-c2ccc4nccnc4c2)CCC3)ccc(F)c1F [Compound 262, 6-(2-(3,4-difluoro-2-methylphenyl)-6,7-dihydro-5H-pyrrolo[1,2-a]imidazol-3-yl)quinoxaline]	–
–	–	Cc1cc(F)c(-c2nc3n(c2-c2ccc4ncccc4c2)CCC3)cc1F [Compound 287, 6-(2-(2,5-difluoro-4-methylphenyl)-6,7-dihydro-5H-pyrrolo[1,2-a]imidazol-3-yl)quinoline]	IC50 (GDF8; [1]): > 1000 nM; IC50 (TGF-β; [2]): > 1000 nM
> 1000	> 1000	Cc1cc(F)c(-c2nc3n(c2-c2ccc4nccn4c2)CCC3)cc1F [Compound 48, 6-(2-(2,5-difluoro-4-methylphenyl)-6,7-dihydro-5H-pyrrolo[1,2-a]imidazol-3-yl)imidazo[1,2-c]pyridine]	–
< 50	< 50	Cc1cccc(-c2nc3occn3c2-c2ccc3ncsc3c2)c1 [Compound 141, 5-(benzo[d]thiazo-6-yl)-6-(m-tolyl)imidazo[2,1-b]oxazole]	–
> 1000	> 1000	Fc1cccc(-c2nc3n(c2-c2ccc4c(c2)OCO4)CCC3)c1 [Compound 223, 3-(benzo[d][1,3]dioxol-5-yl)-2-(3-fluorophenyl)-6,7-dihydro-5H-pyrrolo[1,2-a]imidazole]	–
100 to 1000	> 1000	Fc1ccccc1-c1nc2n(c1-c1ccc3ncccc3c1)CCC2 [Compound 210, 6-(2-(2-fluorophenyl)-6,7-dihydro-5H-pyrrolo[1,2-a]imidazol-3-yl)quinoline]	–
–	–	Cc1cc(-c2nc3n(c2-c2ccc4ncsc4c2)CCC3)c(Cl)cc1F [Compound 323, 6-(2-(2-chloro-4-fluoro-5-methylphenyl)-6,7-dihydro-5H-pyrrolo[1,2-a]imidazol-3-yl)benzo[d]thiazole]	IC50 (GDF8; [5]): > 1000 nM; IC50 (TGF-β; [6]): > 1000 nM
50 to 100	100 to 1000	Fc1ccc(-c2nc3n(c2-c2ccc4nccn4c2)CCC3)cc1Cl [Compound 37]	–
–	–	Fc1cc(Cl)c(-c2nc3n(c2-c2ccc4[nH]ncc4c2)CCC3)cc1F [Compound 288, 5-(2-(2-chloro-4,5-difluorophenyl)-6,7-dihydro-5H-pyrrolo[1,2-a]imidazol-3-yl)-1H-indazole]	IC50 (GDF8; [1]): 100 to 1000 nM; IC50 (TGF-β; [2]): > 1000 nM
–	–	CN(C)C(=O)C1CCC2(CC1)Cc1nc(-c3ccc(F)cc3)c(-c3ccc4ncnn4c3)n1C2 (centres unmarked) [Compound 79, 3′-([1,2,4]triazolo[1,5-a]pyridin-6-yl)-2′-(4-fluorophenyl)-N,N-dimethyl-5′H,7′H-spiro[cyclohexane-1,6′-pyrrolo[1,2-a]imidazole]-4-carboxamide]	IC50 (GDF8; [1]): > 1000 nM; IC50 (TGF-β; [2]): > 1000 nM
> 1000	> 1000	Cc1ccc(-c2nc3n(c2-c2ccc4ncccc4c2)CCC3)c(F)c1F [Compound 251, 6-(2-(2,3-difluoro-4-methylphenyl)-6,7-dihydro-5H-pyrrolo[1,2-a]imidazol-3-yl)quinoline]	–
> 1000	> 1000	Fc1cccc(F)c1-c1nc2n(c1-c1ccc3nccnc3c1)CCC2 [Compound 215, 6-(2-(2,6-difluorophenyl)-6,7-dihydro-5H-pyrrolo[1,2-a]imidazol-3-yl)quinoxaline]	–
50 to 100	100 to 1000	Fc1ccc(-c2nc3occn3c2-c2ccc3ncccc3c2)c(F)c1F [Compound 162, 5-(quinolin-6-yl)-6-(2,3,4-trifluorophenyl)imidazo[2,1-b]oxazole]	–
–	–	Cc1ccc(Cl)cc1-c1nc2n(c1-c1ccc3ncsc3c1)CCC2 [Compound 350, 6-(2-(5-chloro-2-methylphenyl)-6,7-dihydro-5H-pyrrolo[1,2-a]imidazol-3-yl)benzo[d]thiazole]	IC50 (GDF8; [1]): 50 to 100 nM; IC50 (TGF-β; [2]): 100 to 1000 nM
< 50	50 to 100	Cc1cc(-c2nc3n(c2-c2ccc4ncsc4c2)CCC3)ccc1F [Compound 173, 6-(2-(4-fluoro-3-methylphenyl)-6,7-dihydro-5H-pyrrolo[1,2-a]imidazol-3-yl)benzo[d]thiazole]	–
> 1000	> 1000	CS(=O)(=O)OCC1CCC2(CC1)Cc1nc(-c3ccc(F)cc3)c(-c3ccc4ncnn4c3)n1C2 (centres unmarked) [Compound 84, (3′-([1,2,4]triazolo[1,5-a]pyridin-6-yl)-2′-(4-fluorophenyl)-5′H,7′H-spiro[cyclohexane-1,6′-pyrrolo[1,2-a]imidazol]-4-yl)methyl methanesulfonate]	–
–	–	Cc1cc(-c2nc3n(c2-c2ccc4nccnc4c2)CCC3)c(Cl)cc1F [Compound 318, 6-(2-(2-chloro-4-fluoro-5-methylphenyl)-6,7-dihydro-5H-pyrrolo[1,2-a]imidazol-3-yl)quinoxaline]	IC50 (GDF8; [5]): 50 to 100 nM; IC50 (TGF-β; [6]): 100 to 1000 nM
> 1000	> 1000	Cc1cccc(-c2nc3occn3c2I)c1 [Compound 138, 5-iodo-6-(m-tolyl)imidazo[2,1-b]oxazole]	–
50 to 100	50 to 100	Nc1ncnc2ccc(-c3c(-c4ccc(F)c(Cl)c4)nc4n3CCC4)cc12 [Compound 347, 6-(2-(3-chloro-4-fluorophenyl)-6,7-dihydro-5H-pyrrolo[1,2-a]imidazol-3-yl)quinazolin-4-amine]	–
> 1000	> 1000	Cc1ccc(-c2nc3n(c2-c2ccc4ncnn4c2)CCC3)c(F)c1F [Compound 26, 6-(2-(2,3-difluoro-4-methylphenyl)-6,7-dihydro-5H-pyrrolo[1,2-a]imidazol-3-yl)-[1,2,4]triazolo[1,5-a]pyridine]	–
–	–	Cc1c(F)ccc(-c2nc3n(c2-c2ccc4ncccc4c2)CCC3)c1Cl [Compound 315, 6-(2-(2-chloro-4-fluoro-3-methylphenyl)-6,7-dihydro-5H-pyrrolo[1,2-a]imidazol-3-yl)quinoline]	IC50 (GDF8; [1]): > 1000 nM; IC50 (TGF-β; [2]): > 1000 nM
100 to 1000	100 to 1000	Fc1ccc(-c2nc3occn3c2-c2ccc3cn[nH]c3c2)cc1 [Compound 128, 6-(4-fluorophenyl)-5-(1H-indazol-6-yl)imidazo[1,2-b]oxaozle]	–
100 to 1000	100 to 1000	Cc1ccc(Cl)cc1-c1nc2n(c1-c1ccc3ncccc3c1)CCC2 [Compound 340, 6-(2-(5-chloro-2-methylpheny)-6,7-dihydro-5H-pyrrolo[1,2-a]imidazol-3-yl)quinoline]	–
< 50	< 50	Fc1ccc(Cl)cc1-c1nc2n(c1-c1ccc3ncsc3c1)CCC2 [Compound 339, 6-(2-(5-chloro-2-fluoropheny)-6,7-dihydro-5H-pyrrolo[1,2-a]imidazol-3-yl)benzo[d]thiazole]	–
–	–	Fc1ccc(-c2nc3n(c2-c2ccc4cn[nH]c4c2)CCC3)cc1 [Compound 176, 6-(2-(4-fluorophenyl)-6,7-dihydro-5H-pyrrolo[1,2-a]imidazol-3-yl)-1H-indazole]	IC50 (GDF8; [1]): 100 to 1000 nM; IC50 (TGF-β; [2]): > 1000 nM
–	–	Cc1ccc(F)cc1-c1nc2n(c1-c1ccc3nccnc3c1)CCC2 [Compound 302, 6-(2-(5-fluoro-2-methylphenyl)-6,7-dihydro-5H-pyrrolo[1,2-a]imidazol-3-yl)quinoxaline]	IC50 (GDF8; [1]): > 1000 nM; IC50 (TGF-β; [2]): > 1000 nM
< 50	100 to 1000	Cc1cc(-c2nc3n(c2-c2ccc4ncccc4c2)CCC3)c(F)cc1F [Compound 271, 6-(2-(2,4-difluoro-5-methylphenyl)-6,7-dihydro-5H-pyrrolo[1,2-a]imidazol-3-yl)quinoline]	–
